Data from US10016383B2, “Inhibitors of metallo-β-lactamase-enzymes” (McMaster University, priority 2013, dated 2018).

Tests used:
KPC-2 = target: T1, KPC-2 (Klebsiella pneumoniae, UniProt Q9F663); experiment: IC50 enzyme inhibition assay, nitrocefin reporter substrate; type: biochemical
T1 construct: All β-lactamase overexpression constructs were generated without the leader peptide in a pET-28b plasmid containing a N-terminal His Tag; His tag (N); made in house
Description: Enzyme (NDM-1, 5 nM; VIM-2, 500 pM; CTX-M-15, 500 pM; KPC-2, 5 nM; OXA-48, 1 nM; TEM-1, 100 pM; ACE, 50 nM) was mixed with 30 μM nitrocefin (100 μM nitrocefin for TEM-1; 250 µM furanacryloyl-L-phenylalanylglycylglycine [FAPGG] for ACE^24) after a 5-10 minute preincubation with AM-A. Metallo-enzymes were supplemented with 10 μM ZnSO4. Assays were read in 96-well microplate format at 490 nm using a Spectramax reader (Molecular Devices) at 30-37° C.
E. coli strain BW25113 was modified by deletion of the bamB and tolC genes so as to increase permeability to and reduce efflux of small molecules. This strain was then further modified by the single-copy chromosomal insertion of the blaNDM-1 gene under control of the pLac promoter. Microbial natural product extracts were screened against this strain in the presence of sublethal ¼ MIC meropenem. AM-A was purified from a hit extract and its structure elucidated by NMR, mass spectrometry and polarimetry. IC50 values for AM-A were determined using nitrocefin (for MBLs and Ser BLs) and furanacryloyl-L-phenylalanylglycylglycine (for ACE)^21 as reporter substrates against the following purified enzymes: MBLs IMP-7, VIM-2, and NDM-1; SBLs CTX-M-15, KPC-2, OXA-48, and TEM-1; as well as ACE from rabbit lung. IC50, reversibility, Zn^2+ restoration, and inactivation enzyme assays were performed in 50 mM HEPES pH 7.5 and measured using a SpectraMax reader (Molecular Devices). ICP-MS experiments were conducted using purified NDM-1 at 5 mg/mL and varying concentrations of AM-A with subsequent dilution and transfer by nebulization into a NexION 3000 ICP mass spectrometer (Perkin Elmer). FIC values were determined using standard methods^27. Various concentrations of AM-A were tested in combination with 2 mg/L meropenem against 200+MBL-expressing clinical isolates including Pseudomonas spp., Acinetobacter spp., and Enterobacteriaceae. A dose of 2×10^6 forming units (cfu) of Klebsiella pneumoniae N11-2218 was used for all organ bacterial load experiments and a dose of 5×10^7cfu for all survival experiments. For all experiments, mice were treated with compound 30 minutes post infection.

NDM-1 = NDM-1 (Klebsiella pneumoniae, UniProt C7C422); experiment: Incubation of AM-A with metalloenzymes in Zn2+-depleted buffer; type: biochemical; parameters: All β-lactamase overexpression constructs were generated without the leader peptide in a pET-28b plasmid containing a N-terminal His Tag; His tag (N, cleaved yes); SUMO (implied by the use of SUMO protease) (N, cleaved yes); made in house; host or cells: E. coli BL21(DE3); details: extended incubation, AM-A 0.5 mM
Description: Enzyme (500 nM) was incubated with AM-A (500 μM) for 10 minutes. 20 μL of the above was diluted with 180 μL nitrocefin or FAPGG substrate for the following final concentrations: Enzyme (50 nM), FAPGG (50 μM)/nitrocefin (20 μM), AM-A (50 μM). Buffer (50 mM HEPES pH 7.5, 300 mM NaCl) was stirred overnight with 2 g/100 mL Chelex-100 (Biorad; Richmond, Calif.). Assays were read in 96-well microplate format at 490 nm using a Spectramax reader (Molecular Devices) at 37° C.

T1 sequence (Q9F663 25-293 limits assumed): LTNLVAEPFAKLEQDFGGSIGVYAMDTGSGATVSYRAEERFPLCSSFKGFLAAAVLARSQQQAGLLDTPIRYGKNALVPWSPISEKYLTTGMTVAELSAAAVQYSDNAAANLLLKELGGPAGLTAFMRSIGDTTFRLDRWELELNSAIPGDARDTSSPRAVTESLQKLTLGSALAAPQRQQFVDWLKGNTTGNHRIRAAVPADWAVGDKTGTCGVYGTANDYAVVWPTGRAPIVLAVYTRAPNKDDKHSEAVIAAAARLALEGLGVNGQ
Chain of NDM-1 (C7C422 29-270 limits assumed): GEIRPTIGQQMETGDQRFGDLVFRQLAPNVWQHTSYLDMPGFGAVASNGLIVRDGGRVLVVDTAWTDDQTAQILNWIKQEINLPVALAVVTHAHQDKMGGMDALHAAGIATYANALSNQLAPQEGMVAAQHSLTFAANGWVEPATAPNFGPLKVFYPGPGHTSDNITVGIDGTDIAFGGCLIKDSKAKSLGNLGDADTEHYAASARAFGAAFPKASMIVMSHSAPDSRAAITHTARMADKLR

`N[C@H](CN[C@H](CN[C@@H](CC(=O)O)C(=O)O)C(=O)O)C(=O)O` [AM-A, aspergillomarasmine A] was tested, and the “effect on KPC-2” value (KPC-2) was “no effect” and the “inactivation of NDM-1” value (NDM-1) was “complete inactivation”.
